Data as given in patent publication US10280170B2, “Substituted 4,5,6,7-tetrahydro-pyrazolo[1,5-a]pyrazine derivatives and 5,6,7,8-tetrahydro-4H-pyrazolo[1,5-a][1,4]diazepine derivatives as Ros1 inhibitors” (Janssen Pharmaceutica NV, priority 2014, dated 2019).
Like-named read-outs stand apart in the source and are kept apart here.

Columns and labels:
Ros1 enzyme = biological target: T1, Ros1 enzyme (Homo sapiens, UniProt P08922); test: Ros1 enzymatic assay; type: biochemical; details: Ros1 enzymatic assay; read-out: ROS1 pIC50 (converted)
T1 construct: 0.5 μg/ml Ros1 enzyme
Procedure, shortened: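 Ros1 (0.5 μg/ml in enzyme mix) was combined with a substrate mix of biotinylated IRS-Tide (6 μg/ml) and 20 μM ATP spiked with 33P-ATP in 50 mM Tris-HCl pH7.5, 10 mM MgCl2, 1 mM EGTA, 0.01% Tween-20. Reaction ran 120 min at room temperature before EDTA stop.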

[1] = biological target: T2, Ba/F3 cells containing Ros1 wild-type protein (Homo sapiens, UniProt P08922, cells depend on it, form not given); test: Ba/F3-Ros1 cell proliferation assay, wild-type Ros1; type: cell-based, murine; details: without IL-3
T2 construct: The background only speaks of 'a number of different unrelated proteins' and names SLC34A2-ROS1 for HCC78 cells
Procedure, shortened: (§1)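 Ba/F3 cells expressing wild-type, L2026M or G2032R Ros1, 20000 cells/well in phenol red-free RPMI-1640 with 10% FBS, 2 mM L-glutamine, exposed to compound for 24 h at 37 °C, 5% CO2. Viability read by Alamar Blue (resazurin) fluorescence, ex 540/em 590 nm, after 4 h further incubation.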

[2] = biological target: Ba/F3 cells containing Ros1 with G2032R mutation (Homo sapiens, UniProt P08922, G2032R, cells depend on it, form not given); test: Ba/F3-Ros1 cell proliferation assay, G2032R crizotinib-resistance mutant; type: cell-based, murine; details: without IL-3
Description: Ba/F3-Ros1 Cell Proliferation Assay
This assay was carried out with Ba/F3 cells containing three different versions of Ros1: the wild-type protein, protein with a mutation at the gatekeeper residue (L2026M), and protein with a mutation identified in a tumor from a patient that became resistant to crizotinib (Xalkori®) treatment (G2032R). Compounds were solubilized in 100% DMSO (dimethyl sulfoxide) and sprayed into polystyrene, tissue culture treated 384-well plates. A 50 μl volume of cell culture medium (phenol red free RPMI-1640, 10% FBS (fetal bovine serum), 2 mM L-Glutamine) containing 20000 Ba/F3-Ros1 cells was added to each well and the plates were placed in an incubator at 37° C. and 5% CO2. After 24 hours, 10 μl of Alamar Blue solution (0.5 mM K3Fe(CN)6, 0.5 mM K4Fe(CN)6, 0.15 mM Resazurin and 100 mM Phosphate Buffer) was added to the wells, incubated for 4 hours at 37° C. and 5% CO2 before RFU's (Relative Fluorescence Units) (ex. 540 nm., em. 590 nm.) were measured in a fluorescence plate reader.

[3] = test system: Ba/F3 cells containing Ros1 wild-type protein + IL-3; test: Ba/F3-Ros1 cell proliferation counter-screen, wild-type protein in the presence of 10 ng/ml murine IL-3; type: cell-based; details: Mus musculus, BaF3, 24 h, read-out: BaF3-ROS1 + IL3 pIC50 (converted)
Procedure, shortened: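 Ba/F3 cells expressing wild-type Ros1 were grown with 10 ng/ml murine IL-3 and test compound in RPMI-1640 with 10% FBS and 2 mM L-glutamine for 24 h at 37 °C, 5% CO2. Viability was then read as Alamar Blue (resazurin) fluorescence (ex 540/em 590 nm) after 4 h further incubation.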

[4] = test system: HCC78 non-small cell lung cancer cells; test: HCC78 cell proliferation assay; type: cell-based; details: Homo sapiens, HCC78, 96 h, read-out: HCC-78 PROL pEC50 (converted)
Procedure, shortened: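 HCC78 NSCLC cells (~1000/well) in RPMI-1640 with 10% FBS were treated 24 h after seeding and exposed to compound for 4 days at 37 °C. Viability was read by MTT, with absorbance at 538 nm after DMSO/glycine solubilization.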

[5] = test system: Ros pY2274 in HCC78 cells; test: pROS1 immunofluorescence assay in HCC78 cells; type: cell-based; details: Homo sapiens, read-out: HCC78-pRos1 pIC50 (converted)
Description: pROS1 Immunofluorescence Assay in HCC78 Cells
Approximately 20000 HCC78 non-small cell lung cancer cells in 180 μl of cell culture medium (RPMI-1640, 10% FBS, 2 mM L-Glutamine, 10 mM Hepes, 1 mM sodium pyruvate, 4.5 g/L glucose, 1.5 g/L sodium bicarbonate, 25 μg/ml Gentamycin) were seeded in each well of a 96-well polystyrene, poly-D-lysine coated plate and incubated at 37° C. and 5% CO2. After 24 hours, compounds were diluted in cell culture medium from which 20 μl was added to the wells containing cells and incubated for 4 hours at 37° C. and 5% CO2. The medium was removed and the cells were fixed by adding 100 μl of 5% formaldehyde in TBS (tris-buffered saline) (50 mM Tris.HCl, pH 7.4, 150 mM NaCl) and incubating for 15 minutes at room temperature. The formaldehyde was removed and replaced with methanol for 10 minutes at room temperature, after which the cells were washed 3 times with TBS containing 1% Triton X-100 and incubated in Odyssee (Li-Cor) blocking buffer for 1 hour at room temperature. The cells were then incubated with the primary rabbit antibody directed against Ros pY2274 (cst-3078) diluted 1/200 in blocking buffer for 24 hours at room temperature. The cells were washed three times with TBS containing 0.1% Triton X-100 and incubated with a secondary anti-rabbit antibody conjugated to the fluorescent dye Alexafluor 680 in blocking buffer for 1 hour at room temperature. The cells were washed three times with TBS containing 0.1% Triton X-100 and left to dry before measuring RFUs (Relative Fluorescence Units) at 700 nm using a fluorescence imager.
The same experiment was performed using total Ros1 antibody (sc-6347) diluted 1/1000 instead of Ros1 pY2274 antibody and an anti-goat antibody conjugated to IRDye800cw as a secondary antibody. RFUs were measured at […]. The signals from total Ros1 detection were used to normalize the Ros1 pY2274 values.

[6] = biological target: Ba/F3 cells containing Ros1 with a mutation at the gatekeeper residue (L2026M) (Homo sapiens, UniProt P08922, L2026M, cells depend on it, form not given); test: Ba/F3-Ros1 cell proliferation assay, L2026M gatekeeper mutant; type: cell-based, murine; details: without IL-3
Procedure, shortened: as §1

[7] = counter-screen, wild-type, 10 ng/ml murine IL-3
[8] = HCC78 cells, 4 hours, Ros pY2274 normalized to total Ros1

T2 sequence (P08922 whole entry, stated change not applied): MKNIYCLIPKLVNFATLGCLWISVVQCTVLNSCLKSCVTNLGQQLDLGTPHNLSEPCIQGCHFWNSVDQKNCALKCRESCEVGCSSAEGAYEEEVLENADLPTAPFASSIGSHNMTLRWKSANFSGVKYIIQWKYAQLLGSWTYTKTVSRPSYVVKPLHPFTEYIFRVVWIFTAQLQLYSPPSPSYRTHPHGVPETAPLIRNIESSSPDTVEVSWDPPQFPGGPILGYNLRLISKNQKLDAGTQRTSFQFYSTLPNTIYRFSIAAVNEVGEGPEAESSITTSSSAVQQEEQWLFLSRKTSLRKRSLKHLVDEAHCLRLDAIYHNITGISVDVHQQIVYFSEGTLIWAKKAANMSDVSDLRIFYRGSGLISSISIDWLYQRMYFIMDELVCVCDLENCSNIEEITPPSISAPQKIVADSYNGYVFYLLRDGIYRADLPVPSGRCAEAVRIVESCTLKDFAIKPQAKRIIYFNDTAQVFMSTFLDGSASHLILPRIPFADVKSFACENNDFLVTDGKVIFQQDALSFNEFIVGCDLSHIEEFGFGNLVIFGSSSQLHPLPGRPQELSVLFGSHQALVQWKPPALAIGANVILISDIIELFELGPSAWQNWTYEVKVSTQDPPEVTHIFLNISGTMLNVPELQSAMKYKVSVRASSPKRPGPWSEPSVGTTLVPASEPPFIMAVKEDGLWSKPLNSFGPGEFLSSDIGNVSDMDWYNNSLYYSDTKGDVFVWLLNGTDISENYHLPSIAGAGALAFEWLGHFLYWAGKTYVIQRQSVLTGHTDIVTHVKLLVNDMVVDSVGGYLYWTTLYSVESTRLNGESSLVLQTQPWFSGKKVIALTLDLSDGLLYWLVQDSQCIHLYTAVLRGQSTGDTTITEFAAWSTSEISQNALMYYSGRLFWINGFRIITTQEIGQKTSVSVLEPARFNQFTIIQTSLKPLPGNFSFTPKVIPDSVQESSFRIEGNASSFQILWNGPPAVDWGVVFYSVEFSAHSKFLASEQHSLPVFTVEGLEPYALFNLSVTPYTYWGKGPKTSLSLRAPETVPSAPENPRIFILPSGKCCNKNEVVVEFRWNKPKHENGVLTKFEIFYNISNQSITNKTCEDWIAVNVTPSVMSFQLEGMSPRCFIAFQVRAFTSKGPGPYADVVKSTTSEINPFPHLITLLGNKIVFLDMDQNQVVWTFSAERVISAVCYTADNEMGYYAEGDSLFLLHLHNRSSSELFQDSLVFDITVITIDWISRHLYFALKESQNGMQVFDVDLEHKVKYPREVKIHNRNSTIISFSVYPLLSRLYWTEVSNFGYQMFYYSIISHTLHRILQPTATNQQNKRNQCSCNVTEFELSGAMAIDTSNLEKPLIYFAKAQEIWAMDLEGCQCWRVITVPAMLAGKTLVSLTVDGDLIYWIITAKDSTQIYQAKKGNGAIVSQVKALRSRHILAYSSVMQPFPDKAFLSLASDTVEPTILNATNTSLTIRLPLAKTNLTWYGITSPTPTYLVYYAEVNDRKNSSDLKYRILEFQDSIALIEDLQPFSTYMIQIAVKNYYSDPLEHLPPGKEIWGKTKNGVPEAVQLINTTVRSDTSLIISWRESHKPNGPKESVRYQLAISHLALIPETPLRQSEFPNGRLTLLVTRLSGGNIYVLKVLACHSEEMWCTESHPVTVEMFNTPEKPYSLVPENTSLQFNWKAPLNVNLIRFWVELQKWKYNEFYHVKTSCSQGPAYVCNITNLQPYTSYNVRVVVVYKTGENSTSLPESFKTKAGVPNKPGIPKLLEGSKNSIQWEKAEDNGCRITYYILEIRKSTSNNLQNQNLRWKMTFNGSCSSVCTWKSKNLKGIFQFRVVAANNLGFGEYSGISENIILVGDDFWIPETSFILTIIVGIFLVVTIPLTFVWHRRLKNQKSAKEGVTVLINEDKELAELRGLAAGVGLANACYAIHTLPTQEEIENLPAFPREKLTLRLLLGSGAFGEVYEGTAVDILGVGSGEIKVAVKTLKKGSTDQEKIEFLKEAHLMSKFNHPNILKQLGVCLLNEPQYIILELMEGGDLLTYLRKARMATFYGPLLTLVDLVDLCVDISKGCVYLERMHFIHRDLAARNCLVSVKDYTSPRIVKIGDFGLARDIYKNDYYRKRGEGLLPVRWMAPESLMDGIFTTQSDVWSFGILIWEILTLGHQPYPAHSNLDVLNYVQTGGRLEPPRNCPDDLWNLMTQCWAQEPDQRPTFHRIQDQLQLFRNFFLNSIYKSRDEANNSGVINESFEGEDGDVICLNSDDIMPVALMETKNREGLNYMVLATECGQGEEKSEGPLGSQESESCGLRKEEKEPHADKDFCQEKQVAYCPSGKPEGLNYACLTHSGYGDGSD
T1 sequence (P08922 28-2347): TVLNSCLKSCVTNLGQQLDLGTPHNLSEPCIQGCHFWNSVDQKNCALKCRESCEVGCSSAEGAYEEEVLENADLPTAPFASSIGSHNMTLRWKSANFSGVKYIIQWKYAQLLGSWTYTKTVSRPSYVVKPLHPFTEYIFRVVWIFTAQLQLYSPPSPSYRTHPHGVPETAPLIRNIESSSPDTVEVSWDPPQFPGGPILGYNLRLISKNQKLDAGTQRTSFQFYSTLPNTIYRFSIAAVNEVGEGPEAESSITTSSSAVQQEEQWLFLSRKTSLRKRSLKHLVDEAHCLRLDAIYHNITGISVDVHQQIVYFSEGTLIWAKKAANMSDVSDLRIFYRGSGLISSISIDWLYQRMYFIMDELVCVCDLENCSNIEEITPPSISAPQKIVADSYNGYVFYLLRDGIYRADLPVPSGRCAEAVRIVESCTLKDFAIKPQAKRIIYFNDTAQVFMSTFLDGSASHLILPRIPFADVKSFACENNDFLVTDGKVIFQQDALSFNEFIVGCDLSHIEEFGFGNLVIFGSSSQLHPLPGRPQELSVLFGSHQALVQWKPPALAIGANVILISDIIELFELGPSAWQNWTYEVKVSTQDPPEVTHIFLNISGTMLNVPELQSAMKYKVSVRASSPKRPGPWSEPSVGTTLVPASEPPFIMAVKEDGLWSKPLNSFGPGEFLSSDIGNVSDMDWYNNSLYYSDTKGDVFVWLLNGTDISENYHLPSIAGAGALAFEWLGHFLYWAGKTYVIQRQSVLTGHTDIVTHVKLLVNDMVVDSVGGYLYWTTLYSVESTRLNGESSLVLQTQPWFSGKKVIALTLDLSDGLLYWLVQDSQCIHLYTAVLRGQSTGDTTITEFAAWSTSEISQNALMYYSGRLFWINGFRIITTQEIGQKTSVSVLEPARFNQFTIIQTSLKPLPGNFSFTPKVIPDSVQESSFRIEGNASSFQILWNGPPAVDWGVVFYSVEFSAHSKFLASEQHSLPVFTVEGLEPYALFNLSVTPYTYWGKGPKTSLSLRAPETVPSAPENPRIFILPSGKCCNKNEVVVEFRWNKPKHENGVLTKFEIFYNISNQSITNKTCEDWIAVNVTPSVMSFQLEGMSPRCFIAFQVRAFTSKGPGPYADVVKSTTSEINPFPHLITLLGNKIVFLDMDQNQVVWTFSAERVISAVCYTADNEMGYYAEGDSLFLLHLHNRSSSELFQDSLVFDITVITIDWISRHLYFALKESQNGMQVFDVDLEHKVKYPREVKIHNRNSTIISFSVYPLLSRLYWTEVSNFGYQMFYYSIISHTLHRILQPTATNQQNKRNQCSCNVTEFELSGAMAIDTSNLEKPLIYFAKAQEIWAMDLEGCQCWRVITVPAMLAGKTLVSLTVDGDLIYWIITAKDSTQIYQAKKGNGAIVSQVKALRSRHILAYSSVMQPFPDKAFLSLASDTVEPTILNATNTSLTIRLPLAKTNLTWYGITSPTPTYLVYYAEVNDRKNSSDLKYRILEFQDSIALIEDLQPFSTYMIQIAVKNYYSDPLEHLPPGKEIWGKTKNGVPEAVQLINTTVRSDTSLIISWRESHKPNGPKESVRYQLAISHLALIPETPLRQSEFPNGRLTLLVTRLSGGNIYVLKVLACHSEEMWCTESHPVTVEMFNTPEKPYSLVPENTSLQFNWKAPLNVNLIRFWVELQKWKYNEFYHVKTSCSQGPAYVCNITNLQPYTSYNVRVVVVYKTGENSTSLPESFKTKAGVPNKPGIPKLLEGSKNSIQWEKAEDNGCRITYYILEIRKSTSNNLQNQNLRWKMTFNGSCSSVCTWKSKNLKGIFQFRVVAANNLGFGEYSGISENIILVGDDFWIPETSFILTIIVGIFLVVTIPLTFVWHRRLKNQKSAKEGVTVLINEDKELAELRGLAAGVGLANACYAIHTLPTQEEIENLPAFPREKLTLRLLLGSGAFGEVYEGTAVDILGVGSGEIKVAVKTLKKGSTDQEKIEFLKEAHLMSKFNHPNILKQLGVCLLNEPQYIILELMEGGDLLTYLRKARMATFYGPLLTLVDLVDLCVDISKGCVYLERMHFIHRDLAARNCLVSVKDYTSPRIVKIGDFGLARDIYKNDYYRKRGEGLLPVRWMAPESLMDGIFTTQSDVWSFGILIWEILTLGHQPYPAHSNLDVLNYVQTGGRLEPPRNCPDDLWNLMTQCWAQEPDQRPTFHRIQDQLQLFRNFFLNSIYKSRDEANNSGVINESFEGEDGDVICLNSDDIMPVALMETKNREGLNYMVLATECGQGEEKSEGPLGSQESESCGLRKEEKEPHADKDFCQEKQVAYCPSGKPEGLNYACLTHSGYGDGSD
Sequence of Ba/F3 cells containing Ros1 with G2032R mutation (P08922 whole entry G2032R, form open): as the sequence (P08922 whole entry, stated change not applied) above, with G2032R counted along it
Sequence of Ba/F3 cells containing Ros1 with a mutation at the gatekeeper residue (L2026M) (P08922 whole entry L2026M, form open): as the sequence (P08922 whole entry, stated change not applied) above, with L2026M counted along it

Structure (SMILES)	IC50 (Ros1 enzyme)	BaF3-ROS1-IL3 pIC50 [1]	Ba/3 Ros1 G2032R (-IL-3) pIC50 [2]	CC50 [3, 7]	EC50 ([4]; HCC78 cells, 4 days, MTT)	IC50 [5, 8]	melting point	Ba/F3 Ros1 L2026M (-IL-3) pIC50 [6]	CC50 [3]	EC50 [4]	IC50 ([5]; HCC78, 4 h)
COc1ccc(COc2ccc(-c3c(-c4ccncc4)nn4c3C(=O)NCC4)cc2)cc1 [Compound 112]	158 nM	6.8	5.8	> 10000 nM	1000 nM	316 nM	260 °C	–	–	–	–
O=C1NCCn2nc(-c3ccncc3)c(-c3ccc(OCc4ccc(OC(F)(F)F)cc4)cc3)c21 [Compound 116]	126 nM	7.3	6.6	–	–	–	260 °C	7.3	> 10000 nM	251 nM	158 nM
c1cc(-c2nn3c(c2-c2ccc(OCc4ccc(C5CC5)cc4)cc2)CNC2(CC2)C3)ccn1 [Compound 171]	398 nM	6.2	6.0	> 10000 nM	1580 nM	501 nM	152 °C	–	–	–	–
CC(C)c1ccc(COc2ccc(-c3c(-c4ccnc(N)c4)nn4c3C(=O)NCC4)cc2)cc1 [Compound 7]	39.8 nM	7.4	6.8	–	–	–	267 °C	7.4	> 10000 nM	251 nM	100 nM
O=C1NCCn2nc(-c3ccncc3)c(-c3ccc(OCc4ccc(C5CC5)cc4)cc3)c21 [Compound 4]	39.8 nM	7.6	6.8	–	–	–	262 °C	7.4	> 10000 nM	200 nM	79.4 nM
CC(C)c1ccc(COc2ccc(-c3c(-c4ccncn4)nn4c3C(=O)NCC4)cc2)cc1 [Compound 158]	50.1 nM	7.4	6.5	–	–	–	–	7.4	> 10000 nM	316 nM	126 nM
CC(C)(C#N)c1ccc(COc2ccc(-c3c(-c4ccncc4)nn4c3C(=O)NCC4)cc2)cc1 [Compound 10]	79.4 nM	7.1	6.6	–	–	–	280 °C	6.9	> 10000 nM	158 nM	25.1 nM
CC(C)c1ccc(COc2ccc(-c3c(-c4ccncc4)nn4c3C(=O)NCC4)c(F)c2)cc1 [Compound 6]	10 nM	7.9	7.4	–	–	–	271 °C	7.7	> 10000 nM	63.1 nM	15.8 nM
c1cc(-c2nn3c(c2-c2ccc(OCc4ccc(C5CC5)cc4)cc2)CNCC3)ccn1 [Compound 172]	631 nM	6.4	5.2	> 10000 nM	3980 nM	316 nM	–	6.3	–	–	–
O=C1NC2(CNC2)Cn2nc(-c3ccncc3)c(-c3ccc(OCc4ccc(C5CC5)cc4)cc3)c21 [Compound 183]	200 nM	6.0	5.6	> 10000 nM	1580 nM	398 nM	173 °C	–	–	–	–
CC(C)c1ccc(COc2ccc(-c3c(-c4ccncc4)nn4c3C(=O)N(C(C)C)CC4)cc2)cc1 [Compound 49]	39.8 nM	7.3	6.9	–	–	–	168 °C	7.2	> 10000 nM	100 nM	31.6 nM
CNC(=O)CN1CCn2nc(-c3ccncc3)c(-c3ccc(OCc4ccc(C(C)C)cc4)cc3)c2C1 [Compound 174]	200 nM	6.8	6.4	> 10000 nM	794 nM	251 nM	185 °C	6.8	–	–	–
COc1cc(-c2c(-c3ccncc3)nn3c2C(=O)NCC3)ccc1OCc1ccc(C(C)C)cc1 [Compound 32]	6.31 nM	8.0	7.3	–	–	–	187 °C	8.0	> 10000 nM	50.1 nM	15.8 nM
